Assay results: article PMC12703733, “Probing Guanidino Pendant or Bridged Groups in Cyclic Antimicrobial Peptides Derived from Temporin L: A Strategy to Improve Efficacy against Gram-Negative Bacteria” (Journal of Medicinal Chemistry, 2025)
Read-outs that look alike come from different tables or passages of the source. Bridge positions count the residues as written; N and C are the ends. Square brackets hold non-standard residues; d marks the D form. Peptide text beside a SMILES is read from it. * marks the point of attachment. Phe(4-guanidino) = N=C(N)Nc1ccc(C[C@H](N)C(=O)O)cc1; Butanoyl(4-guanidino) = N=C(N)NCCCC(=O)*; X1 = N=C(N)N[C@@H](Cc1ccccc1)C(=O)*

Columns and labels:
circular dichroism = settings: water; pH ns; 25 °C; 150 uM
[1] = type: cell-based, human; settings: human; for viability at 2 h, 3.12 µM / viability at 2 h, 6.25 µM / viability at 2 h, 12.5 µM / viability at 2 h, 25 µM / viability at 2 h, 50 µM / viability at 2 h, 100 µM / viability at 24 h, 3.12 µM / viability at 24 h, 6.25 µM / viability at 24 h, 12.5 µM / viability at 24 h, 25 µM / viability at 24 h, 50 µM / viability at 24 h, 100 µM: Cell viability (%)
Experimental: (§1) For the evaluation of peptides’ cytotoxicity, the human immortalized keratinocytes (HaCaT cells), purchased from AddexBio (San Diego, CA, USA), and BEAS-2B were used. HaCaT cells were cultured in Dulbecco’s modified Eagle’s medium supplemented with 4 mM glutamine (DMEM), 10% heat-inactivated fetal bovine serum (FBS), and 0.1 mg/mL of penicillin and streptomycin, at 37 °C and 5% CO2. BEAS-2B cells were cultured in RPMI, supplemented with 2 mM glutamine (DMEM), 10% heat-inactivated fetal bovine serum (FBS), 1 mM sodium pyruvate, and 0.1 mg/mL of penicillin and streptomycin, at 37 °C and 5% CO2. Cytotoxicity was tested in vitro using a colorimetric assay that relies on the intracellular reduction of the yellow 3-(4,5-dimethylthiazol-2-yl)-2,5-diphenyltetrazolium bromide salt (MTT) by mitochondrial dehydrogenases of metabolically active cells in formazan crystals (purple). About 4 × 10^4 HaCaT and BEAS-2B cells, suspended in DMEM supplemented with 2% FBS, were plated in triplicate wells of a 96-well microtiter plate. The plate was incubated overnight at 37 °C and 5% CO2. Then, the cells were treated with different concentrations of the peptide (from 100 to 3.12 μM) in a fresh serum-free medium for 2 h and for a longer time (24 h). Following peptide treatment, the medium was removed, and MTT (0.5 mg/mL) solution in Hank’s buffer (136 mM NaCl, 4.2 mM Na2HPO4, 4.4 mM KH2PO4, 5.4 mM KCl, 4.1 mM NaHCO3, pH 7.2, supplemented with 20 mM D-glucose) was added to each well of the plate, that was then incubated for 4 h at 37 °C and 5% CO2. The purple formazan crystals were dissolved using acidified 2-propanol and a microplate reader (Infinite M200; Tecan, Salzburg, Austria) was used to measure the absorbance of each well at 570 nm. The percentage of cell viability was calculated compared to the control, which consisted of cells without any peptide treatment (corresponding to 100% viability) and all data represent the mean of three independent experiments ± SEM.

E. coli ATCC 25922 = experiment: microbe, parasite or virus in culture; type: cell-based
Experimental: (§2) Bacterial strains used in this study were the Gram-positive S. aureus ATCC 25923, S. epidermidis ATCC 12228, B. megaterium BM11, S. [NT] 27591, E. faecalis ATCC 29212 and the Gram-negative E. coli ATCC 25922, P. aeruginosa ATCC 27853, A. baumannii ATCC 19606, E. coli D21 and P. aeruginosa PAO1. […] Bacterial cells in the mid log phase were diluted in Muller Hinton (MH) at a concentration of 2 × 10^6 cell/mL. […] Ciprofloxacin was used as antibiotic control. The plate was then incubated at 37 °C. MICs were obtained from three identical readings of four independent experiments.

[2] = tested on: S. epidermidis ATCC 12228; experiment: microbe, parasite or virus in culture; type: cell-based
Experimental: as §2

B. megaterium BM11 = experiment: microbe, parasite or virus in culture; type: cell-based
Experimental: as §2

E. faecalis ATCC 29212 = experiment: microbe, parasite or virus in culture; type: cell-based
Experimental: as §2

S. agalactiae ATCC 27591 = experiment: microbe, parasite or virus in culture; type: cell-based
Experimental: as §2

P. aeruginosa PAO1 = experiment: microbe, parasite or virus in culture; type: cell-based
Experimental: as §2

P. aeruginosa ATCC 27853 = experiment: microbe, parasite or virus in culture; type: cell-based
Experimental: as §2

E. coli D21 = experiment: microbe, parasite or virus in culture; type: cell-based
Experimental: as §2

A. baumannii ATCC 19606 = experiment: microbe, parasite or virus in culture; type: cell-based
Experimental: as §2

S. aureus ATCC 25923 = experiment: microbe, parasite or virus in culture; type: cell-based
Experimental: as §2

[3] = tested on: human keratinocytes (HaCaT cells); type: cell-based
Experimental: as §1

Row | Structure (SMILES) | MIC (E. coli ATCC 25922; ATCC 25922) | MIC ([2]; ATCC 12228) | MIC (B. megaterium BM11; BM11) | MIC (E. faecalis ATCC 29212; ATCC 29212) | MIC (S. agalactiae ATCC 27591; ATCC 27591) | MIC (P. aeruginosa ATCC 27853; ATCC 27853) | MIC (E. coli D21; D21) | helicity (circular dichroism) | viability at 2 h, 3.12 µM [1] | viability at 2 h, 6.25 µM [1] | viability at 2 h, 12.5 µM [1] | viability at 2 h, 25 µM [1] | viability at 2 h, 50 µM [1] | viability at 2 h, 100 µM [1] | viability at 24 h, 3.12 µM [1] | viability at 24 h, 6.25 µM [1] | viability at 24 h, 12.5 µM [1] | viability at 24 h, 25 µM [1] | viability at 24 h, 50 µM [1] | viability at 24 h, 100 µM [1] | other results
1 | CC[C@H](C)[C@H](NC(=O)[C@H](CCCNC(=N)N)NC(=O)[C@H]1CCC(=O)NCCCC[C@H](NC(=O)[C@H](Cc2ccccc2)NC(=O)[C@H](Cc2c[nH]c3ccccc23)NC(=O)[C@@H]2CCCN2C(=O)[C@@H](NC(=O)[C@@H](N)Cc2ccccc2)C(C)C)C(=O)N[C@@H](CCCCN)C(=O)N[C@@H](Cc2ccc(NC(=N)N)cc2)C(=O)N[C@H](CC(C)C)C(=O)N1)C(=O)N[C@@H](CC(C)C)C(N)=O [Peptide 10, FVPWF[KK(p-guanidino)Fle]RIL] (H-FVPWFKK[Phe(4-guanidino)][dL][dE]RIL-NH2; lactam 6-10) | 6.25 µM | 12.5 µM | 0.78 µM | 50 µM | 6.25 µM | 50 µM | 6.25 µM | 3% | 105% | 110% | 112% | 112% | 101% | 82% | 98 ± 3% | 104 ± 2% | 103 ± 3% | 106 ± 3% | 116 ± 5% | 95 ± 6% | MIC (P. aeruginosa PAO1; PAO1): 25 µM; MIC (A. baumannii ATCC 19606; ATCC 19606): 6.25 µM; MIC (S. aureus ATCC 25923; ATCC 25923): 100 µM
2 | CC[C@H](C)[C@H](NC(=O)[C@H](CCCNC(=N)N)NC(=O)[C@@H]1CCCNC(=N)NCCC[C@H](NC(=O)[C@H](Cc2ccccc2)NC(=O)[C@H](Cc2c[nH]c3ccccc23)NC(=O)[C@@H]2CCCN2C(=O)[C@@H](NC(=O)[C@@H](N)Cc2ccccc2)C(C)C)C(=O)N[C@@H](CCCCN)C(=O)N[C@@H](Cc2ccccc2)C(=O)N[C@H](CC(C)C)C(=O)N1)C(=O)N[C@@H](CC(C)C)C(N)=O [Peptide 13, FVPWF{OrnKFlOrn}RIL] | 6.25 µM | 1.56 µM | 0.39 µM | 6.25 µM | 1.56 µM | 50 µM | 6.25 µM | 10% | 107% | 104% | 76% | 31% | 7% | 2% | 103 ± 2% | 103 ± 3% | 97 ± 2% | 22 ± 2% | 2 ± 1% | 3 ± 1% | cytotoxicity (in words) [3]: Low cytotoxicity (up to 25 μM); CC50 at 24 h [1]: 19.7 µM; MIC (A. baumannii ATCC 19606; ATCC 19606): 1.56 µM; MIC (S. aureus ATCC 25923; ATCC 25923): 6.25 µM
3 | O=C(O)c1cn(C2CC2)c2cc(N3CCNCC3)c(F)cc2c1=O [Ciprofloxacin, reference compound] | – | – | – | – | – | – | – | – | – | – | – | – | – | – | – | – | – | – | – | – | MIC (E. coli ATCC 25922; Escherichia coli, ATCC25922, E. coli ATCC 25922, antibiotic control, read-out: MIC): 0.01 µg/mL; MIC ([2]; Staphylococcus epidermidis, ATCC12228, S. epidermidis ATCC 12228, antibiotic control, read-out: MIC): 0.25 µg/mL; MIC (B. megaterium BM11; Priestia megaterium, B. megaterium BM11, antibiotic control, read-out: MIC): 0.12 µg/mL; MIC (E. faecalis ATCC 29212; Enterococcus faecalis, ATCC29212, E. faecalis ATCC 29212, antibiotic control, read-out: MIC): 0.5 µg/mL; MIC (S. agalactiae ATCC 27591; Streptococcus agalactiae, ATCC27591, S. agalactiae ATCC 27591, antibiotic control, read-out: MIC): 0.5 µg/mL; MIC (P. aeruginosa PAO1; Pseudomonas aeruginosa, P. aeruginosa PAO1, antibiotic control, read-out: MIC): 0.12 µg/mL; MIC (P. aeruginosa ATCC 27853; Pseudomonas aeruginosa, ATCC27853, P. aeruginosa ATCC 27853, antibiotic control, read-out: MIC): 0.5 µg/mL; MIC (E. coli D21; Escherichia coli, E. coli D21, antibiotic control, read-out: MIC): 0.01 µg/mL; MIC (A. baumannii ATCC 19606; Acinetobacter baumannii, ATCC19606, A. baumannii ATCC 19606, antibiotic control, read-out: MIC): 1 µg/mL; MIC (S. aureus ATCC 25923; Staphylococcus aureus, ATCC25923, S. aureus ATCC 25923, antibiotic control, read-out: MIC): 0.5 µg/mL

Now from value to molecule, other results behind:

Row | MIC (E. coli ATCC 25922; ATCC 25922) | MIC ([2]; ATCC 12228) | MIC (B. megaterium BM11; BM11) | MIC (E. faecalis ATCC 29212; ATCC 29212) | MIC (S. agalactiae ATCC 27591; ATCC 27591) | MIC (P. aeruginosa ATCC 27853; ATCC 27853) | MIC (E. coli D21; D21) | Structure (SMILES) | helicity (circular dichroism) | viability at 2 h, 3.12 µM [1] | viability at 2 h, 6.25 µM [1] | viability at 2 h, 12.5 µM [1] | viability at 2 h, 25 µM [1] | viability at 2 h, 50 µM [1] | viability at 2 h, 100 µM [1] | viability at 24 h, 3.12 µM [1] | viability at 24 h, 6.25 µM [1] | viability at 24 h, 12.5 µM [1] | viability at 24 h, 25 µM [1] | viability at 24 h, 50 µM [1] | viability at 24 h, 100 µM [1] | other results
4 | 6.25 µM | 3.12 µM | 0.78 µM | 6.25 µM | 1.56 µM | 50 µM | 6.25 µM | CC[C@H](C)[C@H](NC(=O)[C@H](CCCNC(=N)N)NC(=O)[C@H]1CCC(=O)NCCCC[C@H](NC(=O)[C@H](Cc2ccccc2)NC(=O)[C@H](Cc2c[nH]c3ccccc23)NC(=O)[C@@H]2CCCN2C(=O)[C@@H](NC(=O)[C@H](Cc2ccccc2)NC(=O)CCCNC(=N)N)C(C)C)C(=O)N[C@@H](CCCCN)C(=O)N[C@@H](Cc2ccccc2)C(=O)N[C@H](CC(C)C)C(=O)N1)C(=O)N[C@@H](CC(C)C)C(N)=O [Peptide 5, guanidino-GABA-FVPWF[KKFle]RIL] ({Butanoyl(4-guanidino)}-FVPWFKKF[dL][dE]RIL-NH2; lactam 6-10) | 16% | 128% | 126% | 128% | 76% | 18% | 4% | 116 ± 7% | 137 ± 15% | 147 ± 15% | 58 ± 6% | 1 ± 1% | 1 ± 1% | CC50 at 24 h [1]: 24.6 µM; MIC (P. aeruginosa PAO1; PAO1): 25 µM; MIC (A. baumannii ATCC 19606; ATCC 19606): 3.12 µM; MIC (S. aureus ATCC 25923; ATCC 25923): 3.12 µM
5 | 6.25 µM | 3.12 µM | 0.78 µM | 25 µM | 3.12 µM | 100 µM | 6.25 µM | CC[C@H](C)[C@H](NC(=O)[C@H](CCCNC(=N)N)NC(=O)[C@H]1CCC(=O)NCCCC[C@H](NC(=O)[C@H](Cc2ccccc2)NC(=O)[C@H](Cc2c[nH]c3ccccc23)NC(=O)[C@@H]2CCCN2C(=O)[C@@H](NC(=O)[C@H](Cc2ccccc2)NC(=N)N)C(C)C)C(=O)N[C@@H](CCCCN)C(=O)N[C@@H](Cc2ccccc2)C(=O)N[C@H](CC(C)C)C(=O)N1)C(=O)N[C@@H](CC(C)C)C(N)=O [Peptide 3, guanidino-FVPWF[KKFle]RIL] (X1-VPWFKKF[dL][dE]RIL-NH2; lactam 5-9) | 1% | 126% | 137% | 125% | 104% | 52% | 5% | 93 ± 9% | 105 ± 2% | 107 ± 8% | 86 ± 5% | 29 ± 2% | 4 ± 1% | CC50 at 24 h [1]: 38.6 µM; MIC (P. aeruginosa PAO1; PAO1): 50 µM; MIC (A. baumannii ATCC 19606; ATCC 19606): 3.12 µM; MIC (S. aureus ATCC 25923; ATCC 25923): 6.25 µM
